Results reported in patent US20250282746A1, “HALOGEN-SUBSTITUTED ISOINDOLINE COMPOUND AND USE THEREOF” (CHENGDU FENDI PHARMACEUTICAL CO., LTD., priority 2022, published 2025).

What was measured:
Type in all cases: cell-based
MOLM-13 cells [1] = experiment: Antiproliferative effect alone and in combination with azacitidine against MOLM-13 cells
Experimental: (§1) MOLM-13 cells in the logarithmic growth phase were diluted in a medium RPMI+[…], and NCI-H929 cells were diluted in a medium RPMI+10% FBS. The cells were plated at 4,000 cells/well in 96-well whole black plates (WHB) with 50 μL/well. After plating, the plates were incubated in an incubator at 5% CO2 and 37° C. for 24 h before the compounds were added. The compounds were prepared into a 10 mM stock solution in DMSO and diluted in a culture medium to the desired concentrations (a final DMSO concentration of 0.2%). 50 μL of the compound dilutions at final concentrations of 10,000, 3,333.33, 1,111.11, 370.37, 123.46, 41.15, 13.72, 4.57, 1.52, and 0 nM were added to the 96-well plates containing the cells, that is, each compound was serially diluted to 10 concentrations in duplicate. The plates were incubated at 5% CO2 and 37° C. for 72 h. When pharmaceutical partners were used, the concentrations of azacitidine and dexamethasone were kept at 200 nM and 500 nM respectively, and the compounds were serially three-fold diluted from 10,000 nM. After the incubation was complete, the plates were equilibrated at room temperature for 30 min. CellTiter-Glo® Reagent (Promega G7573) was added at 100 μL/well. The plates were shaken for 12 min on a microplate shaker. The luminescence value was measured at room temperature by the GloMax navigator (Promega GM2010). The IC50 values were calculated using the GraphPad Prism 7 software with the 0 nM control group as 0% inhibition.

U937 cells = experiment: Antiproliferative activity against various tumor cells: U937; conditions: Homo sapiens, U-937; U937 cells, 72 h; read-out: Antiproliferative activity IC50 U937
Experimental: (§2) U937, NCI-H929, AML-2, and MOLM-13 cells in the logarithmic growth phase were diluted in media RPMI+10% FBS, RPMI+10% FBS, MEMα+20% FBS, RPMI+20% FBS, respectively, and plated at 4,000 cells/well in 96-well whole black plates (WHB) with 50 μL/well. After plating, the plates were incubated in an incubator at 5% CO2 and 37° C. for 24 h before the compounds were added. The compounds were prepared into a 10 mM stock solution in DMSO and diluted in a culture medium to the desired concentrations (a final DMSO concentration of 0.2%). […] The plates were incubated at 5% CO2 and 37° C. for 72 h. After the incubation was complete, the plates were equilibrated at room temperature for 30 min. CellTiter-Glo® Reagent (Promega G7573) was added at 100 μL/well. The plates were shaken for 12 min on a microplate shaker. The luminescence value was measured at room temperature by the GloMax navigator (Promega GM2010).

GSPT1 protein = biological target: T1, GSPT1 protein (Homo sapiens, UniProt P15170); experiment: Degradation of GSPT1 protein in NB-4 cells (Western blot); conditions: NB-4 cells, compound 1 μM, 6 h; read-out: GSPT1 degradation
T1 construct: The whole cell lysate was prepared using a RIPA lysis buffer; endogenous in cells; host or cells: NB-4 cells
Method in brief: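 NB-4 cells treated with compounds at 1 μM for 6 h at 37 °C, 5% CO2, with DMSO control. RIPA whole-cell lysates, BCA-normalized, were run on 4-20% SDS-PAGE and immunoblotted for GSPT1 protein.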

NCI-H929 cells [2] = experiment: Antiproliferative activity against various tumor cells: NCI-H929; conditions: Homo sapiens; NCI-H929 cells, 72 h; read-out: Antiproliferative activity IC50 NCI-H929
Experimental: as §2

MOLM-13 cells [3] = experiment: Antiproliferative activity against various tumor cells: MOLM-13; conditions: Homo sapiens; MOLM-13 cells, 72 h; read-out: Antiproliferative activity IC50 MOLM-13
Experimental: as §2

AML-2 cells = experiment: Antiproliferative activity against various tumor cells: AML-2; conditions: AML-2 cells, 72 h; read-out: Antiproliferative activity IC50 AML-2
Experimental: as §2

MV-4-11 cells = experiment: Antiproliferative activity against MV-4-11 cells (CellTiter-Glo, 72 h); conditions: Homo sapiens, MV4-11; MV-4-11 cells, 72 h; read-out: Antiproliferative activity IC50
Method in brief: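 MV-4-11 cells in RPMI + 10% FBS plated at 5,000 cells/well and pre-incubated 24 h at 37 °C, 5% CO2. Compounds were then added (final DMSO 0.2%) and cells incubated 72 h. Viability was read by CellTiter-Glo luminescence after 30 min equilibration at room temperature.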

c-Myc = biological target: T2, c-Myc (Homo sapiens, UniProt P01106); experiment: Degradation of c-MYC protein in HL-60 cells (Western blot); conditions: 4 h
T2 construct: The whole cell lysate was prepared using a RIPA lysis buffer; endogenous in cells; host or cells: HL-60 cells
Experimental: (§3) […] of DMSO and the compounds were added, and the mixture was incubated in an incubator at 5% CO2 and 37° C. for 4 h. The cells were centrifuged, and the culture medium was discarded. PBS was added for washing and then discarded. The whole cell lysate was prepared using a RIPA lysis buffer containing a protease inhibitor cocktail and a phosphatase inhibitor, and incubated on ice for 30 min. The mixture was centrifuged, and the cell debris was discarded. The whole cell lysate supernatant was collected and transferred to a fresh EP tube. Samples were prepared using a loading buffer after a BCA protein assay. The samples were incubated in a metal bath at 100° C. for 10 min. The samples were electrophoretically separated from proteins on a 4-20% precast gel (SDS-PAGE gel), transferred to a PVDF membrane, blocked with 5% NFDM/TBST for 1 h at room temperature, co-incubated overnight at 4° C. with the primary antibody, and co-incubated for 2 h at room temperature with the secondary antibody on the next day. The signals were detected on the […]™ imaging system.

CK1α = biological target: T3, CK1α (Homo sapiens, UniProt P48729); experiment: Degradation of CK1α protein in HL-60 cells (Western blot); conditions: 4 h
T3 construct: The whole cell lysate was prepared using a RIPA lysis buffer; endogenous in cells; host or cells: HL-60 cells
Experimental: as §3

NCI-H929 cells [4] = experiment: Antiproliferative effect alone and in combination with dexamethasone against NCI-H929 cells; conditions: 72 h, read-out: IC50
Experimental: as §1

[5] = in combination with 500 nM dexamethasone

T1 sequence (P15170 whole entry): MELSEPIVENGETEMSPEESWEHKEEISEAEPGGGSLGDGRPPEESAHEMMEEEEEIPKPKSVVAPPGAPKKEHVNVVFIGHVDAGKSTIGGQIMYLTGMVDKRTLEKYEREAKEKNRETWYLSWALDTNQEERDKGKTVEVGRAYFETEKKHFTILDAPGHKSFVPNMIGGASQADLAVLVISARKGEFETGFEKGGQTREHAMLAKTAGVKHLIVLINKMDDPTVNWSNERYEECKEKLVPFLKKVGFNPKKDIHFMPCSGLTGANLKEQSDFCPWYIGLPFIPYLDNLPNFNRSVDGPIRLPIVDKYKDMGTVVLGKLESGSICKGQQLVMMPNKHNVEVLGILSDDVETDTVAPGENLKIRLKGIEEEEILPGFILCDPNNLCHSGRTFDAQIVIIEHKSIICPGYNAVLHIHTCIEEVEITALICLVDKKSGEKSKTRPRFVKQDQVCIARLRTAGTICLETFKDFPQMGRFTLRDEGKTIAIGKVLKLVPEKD
T3 sequence (P48729 whole entry): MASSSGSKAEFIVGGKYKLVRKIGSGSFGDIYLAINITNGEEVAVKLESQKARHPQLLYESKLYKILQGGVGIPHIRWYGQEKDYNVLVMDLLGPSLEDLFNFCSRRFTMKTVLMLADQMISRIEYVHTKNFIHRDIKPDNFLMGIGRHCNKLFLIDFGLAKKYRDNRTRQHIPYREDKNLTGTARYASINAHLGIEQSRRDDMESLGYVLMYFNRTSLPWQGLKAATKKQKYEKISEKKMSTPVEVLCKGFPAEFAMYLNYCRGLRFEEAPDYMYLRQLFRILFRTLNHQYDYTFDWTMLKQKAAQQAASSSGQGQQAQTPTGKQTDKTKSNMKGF
T2 sequence (P01106 whole entry): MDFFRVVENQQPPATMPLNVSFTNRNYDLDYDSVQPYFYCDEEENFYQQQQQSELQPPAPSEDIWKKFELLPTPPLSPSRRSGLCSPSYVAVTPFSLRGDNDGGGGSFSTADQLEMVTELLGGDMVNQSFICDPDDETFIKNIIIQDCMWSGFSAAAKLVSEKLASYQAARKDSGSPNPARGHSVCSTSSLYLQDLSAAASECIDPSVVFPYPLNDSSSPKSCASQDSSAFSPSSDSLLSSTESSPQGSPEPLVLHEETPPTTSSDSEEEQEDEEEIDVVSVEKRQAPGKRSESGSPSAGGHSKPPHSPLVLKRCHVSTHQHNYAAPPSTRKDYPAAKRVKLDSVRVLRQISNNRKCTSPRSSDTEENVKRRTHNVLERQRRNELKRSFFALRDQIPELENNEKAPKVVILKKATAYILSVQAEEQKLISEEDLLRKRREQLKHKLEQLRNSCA

| Structure (SMILES) | IC50 (U937 cells) [nM] | inhibition at 1 µM (GSPT1 protein) [%] | IC50 (NCI-H929 cells [2]) [nM] | IC50 (MOLM-13 cells [3]) [nM] | IC50 (AML-2 cells) [nM] | IC50 (MV-4-11 cells) [nM] | also measured |
| --- | --- | --- | --- | --- | --- | --- | --- |
| Nc1ncn([C@@H]2O[C@H](CO)[C@@H](O)[C@H]2O)c(=O)n1 [Azacitidine, reference compound] |  |  |  |  |  |  | antiproliferative activity against MOLM-13 cells at fixed concentration (MOLM-13 cells [1]; 200 nM): no significant antiproliferative activity; IC50 (MOLM-13 cells [1]; Homo sapiens, MOLM-13 cells, 72 h, compound alone): 751 nM |
| Cc1cc(C(=O)NCc2ccc3c(c2F)CN(C2CCC(=O)NC2=O)C3=O)cc(C)c1C (stereo not shown) [FDAB-92] | 1 to 10 | > 80 | 10 to 100 | 1 to 10 | 1 to 10 | 1 to 10 |  |
| CCCCCCCCCCCCSC(=S)SC(C)(C#N)CCC(=O)NCc1ccc2c(c1F)CN(C1CCC(=O)NC1=O)C2=O (stereo not shown) [FDAB-164] |  | > 80 |  |  |  | < 1 | c-Myc degradation (c-Myc; 10 nM): D (D denotes a percentage of degradation less than 25%); c-Myc degradation (c-Myc; 100 nM): C (C denotes a percentage of degradation less than 500% but not less than 250%); c-Myc degradation (c-Myc; 1000 nM): C (C denotes a percentage of degradation less than 500% but not less than 250%); CK1α degradation (CK1α; 10 nM): D (D denotes a percentage of degradation less than 25%); CK1α degradation (CK1α; 100 nM): C (C denotes a percentage of degradation less than 500% but not less than 250%); CK1α degradation (CK1α; 1000 nM): C (C denotes a percentage of degradation less than 500% but not less than 250%) |
| CC(C)(C)c1ccc(C(=O)NCc2ccc3c(c2F)CN(C2CCC(=O)NC2=O)C3=O)cc1 (stereo not shown) [FDAB-94] | < 1 | > 80 | 1 to 10 | < 1 | < 1 | < 1 |  |
| O=C1CCC(N2Cc3c(ccc(CNC(=O)C(F)(F)c4ccc(Cl)cc4)c3F)C2=O)C(=O)N1 (stereo not shown) [FDAB-124] | 10 to 100 | > 80 | 100 to 1000 | 10 to 100 | 10 to 100 | 10 to 100 |  |
| O=C1CCC(N2Cc3c(ccc(CNC(=O)c4cc5cc(Cl)ccc5o4)c3Cl)C2=O)C(=O)N1 (stereo not shown) [FDAB-68] | 10 to 100 | 50 to 80 | 1 to 10 | 10 to 100 | 10 to 100 | 1 to 10 |  |
| C[C@@H]1C[C@H]2[C@@H]3CCC4=CC(=O)C=C[C@]4(C)[C@@]3(F)[C@@H](O)C[C@]2(C)[C@@]1(O)C(=O)CO [Dexamethasone] |  |  |  |  |  |  | IC50 (NCI-H929 cells [4]; Homo sapiens, compound alone): > 10000 nM |
| O=C1CCC(N2Cc3c(ccc(CNC(=O)c4ccc(C(=O)c5ccccc5)cc4)c3F)C2=O)C(=O)N1 (stereo not shown) [FDAB-100] | < 1 | > 80 | < 1 | < 1 | 1 to 10 | < 1 |  |
| O=C1CCC(N2Cc3c(ccc(CNC(=O)C4CC5(CCC5)C4)c3F)C2=O)C(=O)N1 (stereo not shown) [FDAB-156] | 1 to 10 | > 80 | 1 to 10 | 10 to 100 | 10 to 100 | 1 to 10 |  |
| O=C(C#Cc1ccc(-c2ccccc2)cc1)NCc1ccc2c(c1F)CN(C1CCC(=O)NC1=O)C2=O (stereo not shown) [FDAB-147] | < 1 | > 80 | < 1 | < 1 | < 1 | < 1 |  |
| Nc1cccc2c1C(=O)N(C1CCC(=O)NC1=O)C2=O (stereo not shown) [Pomalidomide] |  |  |  |  |  |  | IC50 (NCI-H929 cells [4]; [5]): 22.2 nM; IC50 (NCI-H929 cells [4]; Homo sapiens, compound alone): 243 nM |
| Nc1cccc2c1CN(C1CCC(=O)NC1=O)C2=O (stereo not shown) [Lenalidomide] |  |  |  |  |  |  | IC50 (NCI-H929 cells [4]; [5]): 774 nM; IC50 (NCI-H929 cells [4]; Homo sapiens, compound alone): 2180 nM |
| O=C(/C=C/c1ccc(Cl)cc1)NCc1ccc2c(c1F)CN(C1CCC(=O)NC1=O)C2=O (stereo not shown) [FDAB-142] | 1 to 10 | > 80 | < 1 | < 1 | 1 to 10 | < 1 |  |
| O=C(CCc1cccc(F)c1)NCc1ccc2c(c1F)CN(C1CCC(=O)NC1=O)C2=O (stereo not shown) [FDAB-137] | 1 to 10 | > 80 | 1 to 10 | 1 to 10 | 1 to 10 | 1 to 10 |  |
| O=C(C#Cc1ccccc1)NCc1ccc2c(c1F)CN(C1CCC(=O)NC1=O)C2=O (stereo not shown) [FDAB-144] | 1 to 10 | > 80 | < 1 | < 1 | 1 to 10 | < 1 |  |
| N#Cc1cc2c(cc1F)C(=O)N(C1CCC(=O)NC1=O)C2 (stereo not shown) [FDAB-4] |  | < 25 |  |  |  | > 1000 |  |
| O=C(Cc1ccc(Cl)cc1Cl)NCc1ccc2c(c1F)CN(C1CCC(=O)NC1=O)C2=O (stereo not shown) [FDAB-131] |  | > 80 |  |  |  | < 1 |  |
